# Patent publication US20140066465A1, “CANCER TREATMENT USING TYROSINE KINASE AND NF-kB INHIBITORS” (The Cleveland Clinic Foundation, priority 2012, published 2014)
# How the values were obtained:
# [1] = system: erlotinib-resistant NSCLC cell lines (A549, H1975, and H1993); test: cells
# Procedure: Erlotinib-resistance NSCLC cell lines A549, H1975, and H1993 were used.
# (§1) The cells were plated in 96-well plates at 2500-3000 cells per well, and allowed to attach overnight, with 6 replicates being used for each dose. First, the inventors detected the IC50 with single drug treatment for each cell line.
# sensitive cell lines = test: MTT cell survival assay, single drug; format: cell-based; conditions: single drug treatment
# Procedure: as §1
# [2] = in vivo; cited from earlier work
# CYP3A4 = CYP3A4 (Homo sapiens, UniProt P08684); conditions: cited from earlier work
# H1975 cells = test: PARP cleavage Western blot; format: cell-based; conditions: 5 μM quinacrine, time course
# NF-κB [3] = system: NF-κB
# Procedure: For the NF-κB luciferase assay, A549 or H1975 cells were infected with the κB-luciferse construct PLANFκBluc and stably selected with puromycin or hygromycin. The reporter cells were then seeded in 96-well plates at 1-2×10^3 per well, allowed to attach overnight, and then treated with drugs and/or interleukin-1 for four hours. Cells were then harvested in reporter lysis buffer (Promega) and assayed for luciferase activity using the luciferase assay system (Promega).
# NF-κB [4] = conditions: A549 or H1975 reporter cells; pretreated, then interleukin-1 for 6 h
# Procedure: The reporter cells were then seeded in 96-well plates at 1-2×10^3 per well, allowed to attach overnight, and then treated with drugs and/or IL-1. Cells were then harvested in reporter lysis buffer (Promega) and assayed for luciferase activity using the luciferase assay system (Promega).
# [5] = system: xenograft tumors originating from human renal cell carcinoma; conditions: mice; cited from earlier work
# CYP3A4, sequence (P08684 whole entry): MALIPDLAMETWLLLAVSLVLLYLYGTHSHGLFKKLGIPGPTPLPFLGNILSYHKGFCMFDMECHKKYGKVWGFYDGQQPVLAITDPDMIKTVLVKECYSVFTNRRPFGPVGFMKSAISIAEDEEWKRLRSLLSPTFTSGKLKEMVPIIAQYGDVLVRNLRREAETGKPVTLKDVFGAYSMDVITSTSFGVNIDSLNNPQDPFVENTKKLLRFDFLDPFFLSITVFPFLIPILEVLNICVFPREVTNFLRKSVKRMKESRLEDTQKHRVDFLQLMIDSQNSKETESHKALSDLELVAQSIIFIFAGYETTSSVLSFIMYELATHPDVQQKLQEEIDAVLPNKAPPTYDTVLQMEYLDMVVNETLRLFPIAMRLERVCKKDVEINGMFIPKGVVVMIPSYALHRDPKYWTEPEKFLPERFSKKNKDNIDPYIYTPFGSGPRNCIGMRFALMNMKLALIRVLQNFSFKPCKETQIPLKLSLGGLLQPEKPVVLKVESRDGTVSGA
Compound,IC50 [1],IC50 (sensitive cell lines),half life [2],route of clearance (CYP3A4),Apoptosis by PARP cleavage (H1975 cells),"NF-κB-dependent luciferase reporter activity (NF-κB [3]; A549 or H1975 reporter cells, 4 h treatment, relative to untreated control)",NF-κB activity (NF-κB [3]; general statement of the inventors),IL-1-induced NF-κB-dependent luciferase reporter activity (NF-κB [4]),anti-tumor effect [5]
C#Cc1cccc(Nc2ncnc3cc(OCCOC)c(OCCOC)cc23)c1 [erlotinib],10000 to 20000 nM,~20 nM,about 36 hours,cleared predominantly by CYP3A4 methabolism,,,,,
CCN(CC)CCCC(C)Nc1c2ccc(Cl)cc2nc2ccc(OC)cc12 (stereo not shown) [quinacrine],1000 to 2000 nM,,,,time-dependent increase of PARP cleavage,suppresses NF-κB-dependent luciferase reporter activity,profoundly suppresses NF-κB activity,suppresses interleukin-1 (IL-1)-induced NF-κB-dependent luciferase reporting activity,anti-tumor effect
